# Results published in publication PMC11284788, “NN1213 – A Potent, Long-Acting, and Selective Analog of Human Amylin” (Journal of Medicinal Chemistry, 2024).
# Where two headings read alike, the source gives them in different places. Numbered stars: 1 amine (or outer) side, 2 acyl side, 3 side chain; on linkers, the order of the positions; unused ones are H or OH. Bridge positions count the residues as written; N and C are the ends. Side chains are listed from the residue outwards. Peptide text beside a SMILES is read from it. * marks the point of attachment. C20 diacid = O=C(O)CCCCCCCCCCCCCCCCCCC(=O)*; γGlu = O=C(O)[C@H](CCC(=O)[*:2])N[*:1]
# Legend:
# [1] = ThT assay: fibril formation propensity and peptide recovery; type: physicochemical; conditions: for ThT, pH 7.5 lag-time: 250 μM peptide, 10 mM HEPES pH 7.5, 1 μM ThT, 37 °C, 960 rpm, 45 h, lowest of four replicas, average of experiments; for recovery: pH 7.5, residual dissolved peptide after 45 h of shaking, centrifugation and 0.22 μm filtration, HPLC, relative to amount before stress
# Protocol: The stability properties of the individual amylin analogs were assessed with respect to their propensity toward fibril formation, expressed as the time until fibril formation (measured as Lag time) and loss of dissolved peptide (assessed as Peptide Recovery). […] Samples were prepared as described previously (using the same methodology and materials) for a novel amylin-based analog candidate compound.[7]
# Briefly, each compound was dissolved in 10 mM of glycylglycine buffer (pH 4.0) or HEPES buffer (pH 7.5) to a concentration of 250 μM, followed by ThT stock solution to a final concentration of 1 μM. Each solution was aliquoted into a microtiter plate (200 μL/well) sealed with a transparent adhesive sheet. Mechanical stress was applied at 37 °C incubation (960 rpm, 1 mm amplitude) with 20 min fluorescence reading intervals for 45 h (filters: excitation 444 nm; emission 485 nm). Each peptide was tested in experiments consisting of four replicas (e.g., four wells on the same plate), and the lag time of each replica was determined by visual inspection of the fluorescence-versus-time plot. For wells where no fibril formation could be detected, the lag time was set longer than the test period (>45 h). The lag time of the peptide was set to the lowest lag time of the four replicates (conservative estimate). Some of the peptides were tested in more than one experiment, and the lag time results given in Tables 6 and 9 represent the average of these experiments. The ThT time course data given in Supporting Information represent the average and SEM of each experiment.[40] After analysis, wells representing individual replicas were pooled, and the residual soluble peptide was isolated using centrifugation (20,000 g/30 min at room temperature) followed by […] filtration. The amount of residual dissolved peptide was determined using an HPLC with a flow rate of 2 mL/min at 30 °C and 215/276 nm detection. A gradient combining eluent A (7.7% w/w acetonitrile, 200 mM Na2SO4, 20 mM NaH2PO4, 20 mM Na2HPO4, pH 7.2) and eluent B (65.5% w/w acetonitrile) was applied. The amount of residual dissolved peptide was reported on a relative scale (Peptide Recovery) to the amount of dissolved peptide prior to mechanical stress.
# hCTR = target: T1, hCTR (Homo sapiens, UniProt P30988); assay: cAMP-responsive element luciferase reporter assay, human CTR; type: cell-based; conditions: luciferase (human receptor assay)
# T1 sequence (P30988 25-474): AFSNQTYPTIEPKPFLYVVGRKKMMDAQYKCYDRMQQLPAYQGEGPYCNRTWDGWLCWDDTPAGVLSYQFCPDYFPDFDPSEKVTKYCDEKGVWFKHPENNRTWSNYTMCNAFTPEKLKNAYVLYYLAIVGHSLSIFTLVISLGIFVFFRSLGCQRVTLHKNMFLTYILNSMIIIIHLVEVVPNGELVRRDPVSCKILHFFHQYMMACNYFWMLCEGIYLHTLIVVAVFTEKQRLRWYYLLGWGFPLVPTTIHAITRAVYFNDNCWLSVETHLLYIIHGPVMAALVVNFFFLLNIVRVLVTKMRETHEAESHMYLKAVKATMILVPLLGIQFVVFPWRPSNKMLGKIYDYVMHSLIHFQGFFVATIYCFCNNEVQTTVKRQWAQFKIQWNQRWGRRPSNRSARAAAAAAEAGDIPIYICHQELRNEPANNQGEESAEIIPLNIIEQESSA
# [2] = Solubility versus pH profile
# hAMY3R = target: T2, hAMY3R (Homo sapiens, UniProt O60896+P30988); assay: cAMP-responsive element luciferase reporter assay, human AMY3R; type: cell-based; parameters: expressed in transfected cells; conditions: for EC50: luciferase (human receptor assay); for ratio hCTR/hAMY3R: ratio of luciferase EC50 values
# T2 sequence (P30988 25-474): T1 sequence (P30988 25-474)
# T2 sequence (O60896 24-148 partner): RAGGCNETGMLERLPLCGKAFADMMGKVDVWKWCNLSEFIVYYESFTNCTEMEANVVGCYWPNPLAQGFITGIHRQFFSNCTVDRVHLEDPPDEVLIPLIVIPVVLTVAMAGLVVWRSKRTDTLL
# [3] = HMWP content by size-exclusion chromatography; type: physicochemical; conditions: analogs 1–9 (pH 7.5 series); covalent dimers and polymers prior to fibril formation testing, SEC, % of total absorbance area at 215 nm
# Protocol: The stability properties of the individual amylin analogs were assessed with respect to their propensity toward amyloid fibril formation. The relative amount of covalent dimers and polymers (HMWP) present prior to fibril formation testing was measured as a control for the potential inhibitory effect of HMWP on fibril formation propensity as reported elsewhere.[39]
# Elution was performed under isocratic conditions with the following mobile phase prepared in Milli-Q water (Millipore A/S): 0.5 M NaCl, 10 mM sodium dihydrogen monohydrate, 5 mM ortho-phosphoric acid, 50% (v/v) 2-propanol. The amount of HMWP was determined as the absorbance area of the corresponding peaks given in percentage of the total absorbance area. The molar extinction coefficients of the molecules eluting in the HMWP fraction and the main peak was assumed to be equal.
# [4] = Tables S12 and S14, read-out: hCTR pEC50 (converted)
# [5] = BHK cells stably expressing hCTR and CRE-luciferase, 3 h, 37 °C, 10% FBS, read-out: hCTR EC50
# [6] = Tables S12 and S14, read-out: hAMY3R pEC50 (converted)
# [7] = BHK cells stably expressing hCTR+RAMP3 and CRE-luciferase, 3 h, 37 °C, 10% FBS, read-out: hAMY3R EC50
"ThT, pH 7.5 lag-time [1]",recovery [1],EC50 (hCTR; [4]),EC50 (hCTR; [5]),"solubility kinetic ([2]; bis-tris-propane buffer, pH 6, aqueous buffer)","solubility kinetic ([2]; bis-tris-propane buffer, pH 6.5, aqueous buffer)","solubility kinetic ([2]; bis-tris-propane buffer, pH 7, aqueous buffer)","solubility kinetic ([2]; bis-tris-propane buffer, pH 7.5, aqueous buffer)","solubility kinetic ([2]; bis-tris-propane buffer, pH 8, aqueous buffer)","solubility kinetic ([2]; lactate buffer, pH 4, aqueous buffer)","solubility kinetic ([2]; lactate buffer, pH 5, aqueous buffer)",EC50 (hAMY3R; [6]),EC50 (hAMY3R; [7]),ratio hCTR/hAMY3R (hAMY3R),HMWP [3],SMILES
0 h,0%,1.38 nM,1.37 nM,≥ 200 µM,75 µM,7 µM,7 µM,15 µM,≥ 200 µM,≥ 200 µM,1.55 nM,1.54 nM,0.9,,CC(C)C[C@H](NC(=O)[C@H](CCCNC(=N)N)NC(=O)[C@H](CCC(N)=O)NC(=O)[C@@H](NC(=O)[C@H](C)NC(=O)[C@@H]1CSSC[C@H](NC(=O)[C@@H](N)CCCCNC(=O)CC[C@H](NC(=O)CCCCCCCCCCCCCCCCCCC(=O)O)C(=O)O)C(=O)N[C@@H](CC(N)=O)C(=O)N[C@@H]([C@@H](C)O)C(=O)N[C@@H](C)C(=O)N[C@@H]([C@@H](C)O)C(=O)N1)[C@@H](C)O)C(=O)N[C@@H](C)C(=O)N[C@@H](CC(=O)O)C(=O)N[C@@H](Cc1ccccc1)C(=O)N[C@@H](CC(C)C)C(=O)N[C@@H](CCCNC(=N)N)C(=O)N[C@@H](Cc1c[nH]cn1)C(=O)N[C@@H](CO)C(=O)N[C@@H](CO)C(=O)N[C@@H](CCC(N)=O)C(=O)N[C@@H](CC(N)=O)C(=O)N[C@@H](Cc1ccccc1)C(=O)NCC(=O)N[C@@H](C)C(=O)N1CCC[C@H]1C(=O)N[C@@H](CC(C)C)C(=O)N[C@@H](CO)C(=O)N[C@@H](CO)C(=O)N[C@H](C(=O)N[C@@H](CC(N)=O)C(=O)N[C@H](C(=O)NCC(=O)N[C@@H](CO)C(=O)N1CCC[C@H]1C(=O)N[C@H](C(=O)N[C@@H](Cc1ccc(O)cc1)C(N)=O)[C@@H](C)O)C(C)C)[C@@H](C)O [Peptide 2] (H-K([γGlu-C20 diacid])CNTATCATQRLADFLRHSSQNFGAPLSSTNVGSPTY-NH2; disulfide 2-7)
>45 h,100%,2.19 nM,2.19 nM,,,,,,,,0.389 nM,0.39 nM,5.6,2.5%,CC[C@H](C)[C@H](NC(=O)[C@H](C)NC(=O)CNC(=O)[C@H](Cc1ccccc1)NC(=O)[C@@H]1CCCN1C(=O)[C@H](CC(N)=O)NC(=O)[C@H](CO)NC(=O)[C@H](CO)NC(=O)[C@H](Cc1c[nH]cn1)NC(=O)[C@H](CCCNC(=N)N)NC(=O)[C@H](CC(C)C)NC(=O)[C@H](Cc1ccccc1)NC(=O)[C@H](CC(=O)O)NC(=O)[C@H](C)NC(=O)[C@H](CC(C)C)NC(=O)[C@H](CCCNC(=N)N)NC(=O)[C@H](CCC(N)=O)NC(=O)[C@@H](NC(=O)[C@H](C)NC(=O)[C@@H]1CSSC[C@H](NC(=O)[C@@H](N)CCCCNC(=O)CC[C@H](NC(=O)CC[C@H](NC(=O)CCCCCCCCCCCCCCCCCCC(=O)O)C(=O)O)C(=O)O)C(=O)N[C@@H](CC(N)=O)C(=O)N[C@@H]([C@@H](C)O)C(=O)N[C@@H](C)C(=O)N[C@@H]([C@@H](C)O)C(=O)N1)[C@@H](C)O)C(=O)N1CCC[C@H]1C(=O)N[C@@H](CO)C(=O)N[C@@H](CO)C(=O)N[C@H](C(=O)N[C@@H](CC(N)=O)C(=O)N[C@H](C(=O)NCC(=O)N[C@@H](CO)C(=O)N[C@@H](CC(=O)O)C(=O)N[C@H](C(=O)N[C@@H](Cc1ccc(O)cc1)C(N)=O)[C@@H](C)O)C(C)C)[C@@H](C)O [Peptide 8] (H-K([γGlu-γGlu-C20 diacid])CNTATCATQRLADFLRHSSNPFGAIPSSTNVGSDTY-NH2; disulfide 2-7)
